In ChEMBL document CHEMBL1135808, “A new type of mixed anhydride and its applications to the synthesis of 7-substituted 8-chloro-5,5-dioxoimidazo[1,2-b][1,4,2]benzodithiazines with in vitro antitumor activity” (2002):

Columns and labels:
[1] = system: Hs-578T; experiment: In vitro total growth inhibition against breast cancer HS 578T cell lines was reported.; format: functional; details: Homo sapiens, read-out: Log TGI (converted)
[2] = system: MDA-N; experiment: In vitro growth inhibition against breast cancer MDA-N cell line was reported.; format: functional; details: Homo sapiens
[3] = system: HCT-116; experiment: In vitro growth inhibition against colon cancer HCT116 cell line was reported.; format: functional; details: Homo sapiens
[4] = system: SF-295; experiment: In vitro total growth inhibition against CNS cancer SF-295 cell lines was reported.; format: functional; details: Homo sapiens, read-out: Log TGI (converted)
[5] = system: SNB-19; experiment: In vitro growth inhibition against CNS cancer SNB-19 cell line was reported.; format: functional; details: Homo sapiens
[6] = system: SNB-19; experiment: Log of molar concentration leading to 50% cell death against CNS cancer SNB-19 cell line was reported; format: functional; details: Homo sapiens, read-out: Log LC50 (the source's name) (converted)
[7] = system: SF-268; experiment: In vitro total growth inhibition against CNS cancer SF-268 cell lines was reported.; format: functional; details: Homo sapiens, read-out: Log TGI (converted)
[8] = system: HT-29; experiment: In vitro total growth inhibition against colon cancer HT-29 cell lines was reported.; format: functional; details: Homo sapiens, read-out: Log TGI (converted)
[9] = system: KM12; experiment: In vitro growth inhibition against colon cancer KM12 cell line was reported.; format: functional; details: Homo sapiens
[10] = system: SW-620; experiment: In vitro growth inhibition against colon cancer SW620 cell line was reported.; format: functional; details: Homo sapiens
[11] = system: Tumor Cell line; experiment: In vitro inhibition of 50% cell growth was reported as log of molar concentration for 60 cell lines.; format: functional; details: Homo sapiens
[12] = system: Tumor Cell line; experiment: In vitro total growth inhibition for 50 cell lines was reported as log of molar concentration; format: functional, Homo sapiens
[13] = system: CCRF-CEM; experiment: In vitro total growth inhibition against leukemia CCRF cell lines was reported.; format: functional; details: Homo sapiens, read-out: Log TGI (converted)
[14] = system: HL-60; experiment: In vitro total growth inhibition against leukemia HL-60(TB) cell lines was reported.; format: functional; details: Homo sapiens, read-out: Log TGI (converted)
[15] = system: SR; experiment: In vitro growth inhibition against leukemia SR cell line was reported.; format: functional; details: Homo sapiens
[16] = system: SK-MEL-28; experiment: In vitro growth inhibition against melanoma SK-MEL-28 cell line was reported.; format: functional; details: Homo sapiens
[17] = species: Homo sapiens; experiment: In vitro total growth inhibition against non-small-cell lung cancer EKVX cell lines was reported.; format: functional; details: read-out: Log TGI (converted)
[18] = system: NCI-H226; experiment: Log of molar concentration leading to 50% cell death against non-small-cell lung cancer NCI-H226 cell line was reported; format: functional; details: Homo sapiens, read-out: Log LC50 (the source's name) (converted)
[19] = system: NCI-H23; experiment: Log of molar concentration leading to 50% cell death against non-small-cell lung cancer NCI-H23 cell line was reported; format: functional; details: Homo sapiens, read-out: Log LC50 (the source's name) (converted)
[20] = system: OVCAR-4; experiment: In vitro growth inhibition against ovarian cancer OVCAR-4 cell line was reported.; format: functional; details: Homo sapiens
[21] = system: SK-OV-3; experiment: In vitro total growth inhibition against ovarian cancer SK-OV-3 cell lines was reported.; format: functional; details: Homo sapiens, read-out: Log TGI (converted)
[22] = system: SN12C; experiment: In vitro total growth inhibition against renal cancer SN12C cell lines was reported.; format: functional; details: Homo sapiens, read-out: Log TGI (converted)
[23] = system: SR; experiment: Log of molar concentration leading to 50% cell death against leukemia SR cell line was reported; format: functional; details: Homo sapiens, read-out: Log LC50 (the source's name) (converted)
[24] = system: MOLT-4; experiment: Log of molar concentration leading to 50% cell death against leukemia MOLT-4 cell line was reported; format: functional; details: Homo sapiens, read-out: Log LC50 (the source's name) (converted)
[25] = system: CCRF-CEM; experiment: Log of molar concentration leading to 50% cell death against leukemia CCRF-CEM cell line was reported; format: functional; details: Homo sapiens, read-out: Log LC50 (the source's name) (converted)
[26] = system: HCT-15; experiment: Log of molar concentration leading to 50% cell death against colon cancer HCT-15 cell line was reported; format: functional; details: Homo sapiens, read-out: Log LC50 (the source's name) (converted)
[27] = system: KM12; experiment: Log of molar concentration leading to 50% cell death against colon cancer KM12 cell line was reported; format: functional; details: Homo sapiens, read-out: Log LC50 (the source's name) (converted)
[28] = system: OVCAR-5; experiment: Log of molar concentration leading to 50% cell death against ovarian cancer […] cell line was reported; format: functional; details: Homo sapiens, read-out: Log LC50 (the source's name) (converted)
[29] = system: BT-549; experiment: Log of molar concentration leading to 50% cell death against breast cancer BT 549 cell line was reported; format: functional; details: Homo sapiens, read-out: Log LC50 (the source's name) (converted)
[30] = system: MDA-MB-435; experiment: Log of molar concentration leading to 50% cell death against breast cancer MDA-MB-435 cell line was reported; format: functional; details: Homo sapiens, read-out: Log LC50 (the source's name) (converted)
[31] = system: MDA-N; experiment: Log of molar concentration leading to 50% cell death against breast cancer MDA-Ncell line was reported; format: functional; details: Homo sapiens, read-out: Log LC50 (the source's name) (converted)
[32] = system: UACC-62; experiment: In vitro total growth inhibition against melanoma UACC-62 cell lines was reported.; format: functional; details: Homo sapiens, read-out: Log TGI (converted)
[33] = system: LOX IMVI; experiment: Log of molar concentration leading to 50% cell death against melanoma LOX IMVI cell line was reported; format: functional; details: Homo sapiens, read-out: Log LC50 (the source's name) (converted)
[34] = system: Malme-3M; experiment: Log of molar concentration leading to 50% cell death against melanoma MALME 3M cell line was reported; format: functional; details: Homo sapiens, read-out: Log LC50 (the source's name) (converted)
[35] = system: Malme-3M; experiment: In vitro total growth inhibition against melanoma MALME 3M cell lines was reported.; format: functional; details: Homo sapiens, read-out: Log TGI (converted)
[36] = system: SK-MEL-28; experiment: Log of molar concentration leading to 50% cell death against melanoma SK-MEL-28 cell line was reported; format: functional; details: Homo sapiens, read-out: Log LC50 (the source's name) (converted)
[37] = system: SK-MEL-28; experiment: In vitro total growth inhibition against melanoma SK-MEL-28 cell lines was reported.; format: functional; details: Homo sapiens, read-out: Log TGI (converted)
[38] = system: SK-MEL-5; experiment: In vitro total growth inhibition against melanoma SK-MEL-5 cell lines was reported.; format: functional; details: Homo sapiens, read-out: Log TGI (converted)
[39] = system: DU-145; experiment: Log of molar concentration leading to 50% cell death against prostate cancer […] cell line was reported; format: functional; details: Homo sapiens, read-out: Log LC50 (the source's name) (converted)
[40] = system: A549; experiment: In vitro growth inhibition against non-small-cell lung cancer A 549/ATCC cell line was reported.; format: functional; details: Homo sapiens
[41] = system: EKVX; experiment: In vitro growth inhibition against non-small-cell lung cancer EKVX cell line was reported.; format: functional; details: Homo sapiens
[42] = system: HOP-92; experiment: In vitro growth inhibition against non-small-cell lung cancer HOP-92 cell line was reported.; format: functional; details: Homo sapiens
[43] = system: NCI-H46; experiment: In vitro growth inhibition against non-small-cell lung cancer […] cell line was reported.; format: functional; details: Homo sapiens
[44] = system: 786-0; experiment: Log of molar concentration leading to 50% cell death against renal cancer […] cell line was reported; format: functional; details: Homo sapiens, read-out: Log LC50 (the source's name) (converted)
[45] = system: A498; experiment: Log of molar concentration leading to 50% cell death against renal cancer A498 cell line was reported; format: functional; details: Homo sapiens, read-out: Log LC50 (the source's name) (converted)
[46] = system: SN12C; experiment: Log of molar concentration leading to 50% cell death against renal cancer SN12C cell line was reported; format: functional; details: Homo sapiens, read-out: Log LC50 (the source's name) (converted)
[47] = system: UO-31; experiment: Log of molar concentration leading to 50% cell death against renal cancer UO-31 cell line was reported; format: functional; details: Homo sapiens, read-out: Log LC50 (the source's name) (converted)
[48] = system: UACC-62; experiment: Log of molar concentration leading to 50% cell death against melanoma UACC-62 cell line was reported; format: functional; details: Homo sapiens, read-out: Log LC50 (the source's name) (converted)
[49] = system: COLO 205; experiment: In vitro growth inhibition against colon cancer COLO 205 cell line was reported.; format: functional; details: Homo sapiens
[50] = system: MDA-MB-435; experiment: In vitro growth inhibition against breast cancer MDA-MB-435 cell line was reported.; details: Homo sapiens
[51] = system: HT-29; experiment: Log of molar concentration leading to 50% cell death against colon cancer HT-29 cell line was reported; format: functional; details: Homo sapiens, read-out: Log LC50 (the source's name) (converted)
[52] = system: NCI/ADR-RES; experiment: Log of molar concentration leading to 50% cell death against breast cancer NCI/ADR-RES cell line was reported; format: functional; details: Homo sapiens, read-out: Log LC50 (the source's name) (converted)
[53] = system: T47D; experiment: Log of molar concentration leading to 50% cell death against breast cancer […] cell line was reported; format: functional; details: Homo sapiens, read-out: Log LC50 (the source's name) (converted)
[54] = system: CAKI-1; experiment: Log of molar concentration leading to 50% cell death against renal cancer CAKI-1 cell line was reported; format: functional; details: Homo sapiens, read-out: Log LC50 (the source's name) (converted)

O=C(Nc1nccs1)c1cc2c(cc1Cl)Sc1nccn1S2(=O)=O
TGI [1]: 91.2 µM | GI50 [2]: 17.8 µM | GI50 [3]: 16.2 µM | TGI [4]: 34.7 µM | GI50 [5]: 19.1 µM | CC50 [6]: 72.4 µM | TGI [7]: 46.8 µM | TGI [8]: 46.8 µM | GI50 [9]: 12.3 µM | GI50 [10]: 17 µM | GI50 [11]: 28.2 µM | Log GTI [12]: -4.04 | TGI [13]: 24.5 µM | TGI [14]: 30.9 µM | GI50 [15]: 3.02 µM | GI50 [16]: 20 µM | TGI [17]: 44.7 µM | CC50 [18]: 64.6 µM | CC50 [19]: 67.6 µM | GI50 [20]: 16.2 µM | TGI [21]: 64.6 µM | TGI [22]: 32.4 µM | CC50 [23]: 46.8 µM | CC50 [24]: 93.3 µM | CC50 [25]: 95.5 µM | CC50 [26]: 93.3 µM | CC50 [27]: 57.5 µM | CC50 [28]: 97.7 µM | CC50 [29]: 69.2 µM | CC50 [30]: 57.5 µM | CC50 [31]: 61.7 µM | TGI [32]: 27.5 µM | CC50 [33]: 60.3 µM | CC50 [34]: 69.2 µM | TGI [35]: 37.2 µM | CC50 [36]: 70.8 µM | TGI [37]: 38 µM | TGI [38]: 30.2 µM | CC50 [39]: 27.5 µM | GI50 [40]: 24 µM | GI50 [41]: 20.4 µM | GI50 [42]: 15.1 µM | GI50 [43]: 15.8 µM | CC50 [44]: 53.7 µM | CC50 [45]: 63.1 µM | CC50 [46]: 63.1 µM | CC50 [47]: 46.8 µM | CC50 [48]: 52.5 µM | GI50 [49]: 17 µM | GI50 [50]: 17.4 µM

O=C(Nc1cccc2nsnc12)c1cc2c(cc1Cl)Sc1nccn1S2(=O)=O
GI50 [2]: 13.5 µM | GI50 [3]: 2.57 µM | TGI [4]: 25.1 µM | GI50 [5]: 12 µM | CC50 [6]: 50.1 µM | TGI [7]: 16.2 µM | TGI [8]: 5.25 µM | GI50 [9]: 2.04 µM | GI50 [10]: 12 µM | GI50 [11]: 45.7 µM | Log GTI [12]: -4.31 | TGI [13]: 13.5 µM | TGI [14]: 3.72 µM | GI50 [15]: 2 µM | GI50 [16]: 2.45 µM | TGI [17]: 4.68 µM | CC50 [18]: 58.9 µM | CC50 [19]: 55 µM | GI50 [20]: 2.75 µM | TGI [22]: 28.8 µM | CC50 [24]: 83.2 µM | CC50 [26]: 72.4 µM | CC50 [51]: 28.8 µM | CC50 [27]: 7.41 µM | CC50 [29]: 85.1 µM | CC50 [31]: 56.2 µM | CC50 [52]: 83.2 µM | CC50 [53]: 7.76 µM | TGI [32]: 17.8 µM | CC50 [36]: 46.8 µM | TGI [37]: 6.76 µM | TGI [38]: 33.9 µM | CC50 [39]: 6.03 µM | GI50 [40]: 12.6 µM | GI50 [41]: 2.29 µM | GI50 [42]: 5.89 µM | GI50 [43]: 2.04 µM | CC50 [44]: 55 µM | CC50 [45]: 63.1 µM | CC50 [54]: 51.3 µM | CC50 [46]: 56.2 µM | CC50 [47]: 50.1 µM | CC50 [48]: 41.7 µM | GI50 [49]: 17.4 µM | GI50 [50]: 8.13 µM
